Results: US20240366728A1, “Treatment of Diabetes Mellitus” (Carmot Therapeutics Inc., priority 2023, published 2024)
Marks after values point to notes of the source that are not given here.

Legend:
in vivo = conditions: CD-1, mouse, plasma, sc
Protocol: (§1) First reader's note: The heading '1 mg/kg SC mouse' is printed over the plot above the table and gives dose, route and species for the pharmacokinetic parameters.

lean C57BL/6J mice = experiment: intraperitoneal glucose tolerance test in lean mice
[1] = system: GLP-1R+/+ and GLP-1R-/- mice; experiment: intraperitoneal glucose tolerance test in GLP-1R+/+ and GLP-1R-/- mice
clinical = experiment: clinical; parameters: species or system human; conditions: in vivo
Protocol: Blood samples, pre- and post-dose, were collected during the in-house treatment periods for the assessment of PD and PK endpoints. […] In addition, fasting plasma glucose (FPG), insulin, C-peptide, GCG and HOMA-IR after ≥10 hours overnight fast and VAS assessments were done on Days 1, 2 and 3.
In participants with T2DM, blood samples were collected on Days 2, 3 and 4 for assessing PK profiles and for PD profiles, on Days 2 and 3. Fasting plasma glucose (FPG), insulin, C-peptide, GCG and HOMA-IR after ≥10 hours overnight fast on Days 1, 2, 3 and 4. A mixed meal tolerance test (MMTT) and prospective meal consumption (ad libitum meal) was administered on Day 4. Appetite and food intake were assessed using a VAS questionnaire (appetite, hunger and satiety) on Days 1, 2, 3 and 4.

[2] = system: participants with obesity and participants with T2DM; experiment: CT-868-003 crossover study: safety; assay type: in vivo, human; conditions: for Infections and infestations / Urinary tract infection: Table 24
Source text: Safety assessments of this study included treatment-emergent adverse events (TEAEs), serious adverse events (SAEs), adverse events of special interest (AESI), vital signs, 12-lead electrocardiogram (ECG), clinical lab evaluations, and physical exam.
Safety assessments which occurred throughout the entire study, included monitoring of incidence and severity of AEs, treatment-emergent AEs (TEAEs) and AEs of special interest (AESIs) (e.g., GI events, hypoglycemia), clinical laboratory abnormalities (ECGs, chemistry, hematology, and urinalysis), and changes in vital sign measurements (BP, heart rate, respiratory rate, and aural temperature).
AE terms recorded by the Investigator were coded to system organ class (SOC) and preferred term (PT) using the Medical Dictionary for Regulatory Activities (MedDRA) version 24.0. Severity was collected using the Common Terminology Criteria for AEs (CTCAE) version 5.0 Toxicity Grade. Events with missing severity were summarized as Grade 3. TEAEs summarized by severity counted each participant once for the maximum severity within each SOC and PT within each in-house treatment period and overall. TEAEs marked with a relationship to study treatment as definitely, probable, possible, or missing were considered as related TEAEs. Events with missing relationship to study treatment were summarized as related. The number and percentage of participants with TEAEs were summarized by MedDRA-coded SOCs and PTs.

[3] = in vivo
toxicology studies = conditions: highest dose tested
human GIPR = target: T1, human GIPR (Homo sapiens, UniProt P48546); experiment: cAMP accumulation, SNAP-human GIPR CHO-K1 cells
T1 sequence (P48546 22-466): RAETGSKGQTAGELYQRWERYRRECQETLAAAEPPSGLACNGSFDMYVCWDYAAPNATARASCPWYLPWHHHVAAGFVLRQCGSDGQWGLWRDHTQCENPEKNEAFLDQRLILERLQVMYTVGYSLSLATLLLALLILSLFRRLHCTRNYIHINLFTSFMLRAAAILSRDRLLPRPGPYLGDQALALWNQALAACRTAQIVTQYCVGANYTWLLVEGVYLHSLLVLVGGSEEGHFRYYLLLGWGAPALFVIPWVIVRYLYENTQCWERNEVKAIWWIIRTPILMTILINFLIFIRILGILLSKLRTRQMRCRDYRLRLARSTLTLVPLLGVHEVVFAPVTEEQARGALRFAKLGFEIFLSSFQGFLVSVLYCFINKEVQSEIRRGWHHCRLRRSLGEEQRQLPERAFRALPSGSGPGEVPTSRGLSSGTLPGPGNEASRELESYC

human GLP-1R = human GLP-1R (Homo sapiens, UniProt P43220); experiment: cAMP accumulation, SNAP-human GLP-1R CHO-K1 cells
[4] = Part 1 (participants with obesity)
[5] = Part 2 (participants with T2DM)

human GLP-1R, sequence (P43220 24-463): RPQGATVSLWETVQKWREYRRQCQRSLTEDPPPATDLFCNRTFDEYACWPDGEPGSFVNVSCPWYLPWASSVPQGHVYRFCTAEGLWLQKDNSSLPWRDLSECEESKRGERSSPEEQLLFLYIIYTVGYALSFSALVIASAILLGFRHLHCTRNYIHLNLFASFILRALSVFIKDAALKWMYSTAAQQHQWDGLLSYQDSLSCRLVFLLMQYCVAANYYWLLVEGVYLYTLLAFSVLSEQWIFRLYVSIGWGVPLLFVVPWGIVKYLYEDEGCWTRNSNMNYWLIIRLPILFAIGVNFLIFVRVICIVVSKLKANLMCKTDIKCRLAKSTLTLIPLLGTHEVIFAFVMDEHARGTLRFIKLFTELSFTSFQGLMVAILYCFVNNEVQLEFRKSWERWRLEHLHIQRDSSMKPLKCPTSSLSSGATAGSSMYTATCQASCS
Protocol for 1 mg/kg SC mouse: as §1

## CCCCCCCCCCCCCCCC(=O)N[C@@H](CCC(=O)NCCCC[C@H](NC(=O)[C@H](CO)NC(=O)[C@@H]1CCCN1C(=O)[C@@H]1CCCN1C(=O)[C@@H]1CCCN1C(=O)[C@H](C)NC(=O)CNC(=O)[C@H](CO)NC(=O)[C@H](CO)NC(=O)[C@@H]1CCCN1C(=O)CNC(=O)CNC(=O)[C@H](C)NC(=O)[C@H](CC(C)C)NC(=O)[C@H](CC(C)C)NC(=O)[C@H](Cc1c[nH]c2ccccc12)NC(=O)[C@H](CC(N)=O)NC(=O)[C@@H](NC(=O)[C@H](Cc1ccccc1)NC(=O)[C@H](CCC(=O)O)NC(=O)C(C)(C)NC(=O)[C@H](C)NC(=O)[C@H](C)NC(=O)[C@H](CCC(N)=O)NC(=O)[C@H](CCCCN)NC(=O)[C@H](CC(=O)O)NC(=O)[C@H](CC(C)C)NC(=O)[C@H](Cc1ccc(O)cc1)NC(=O)[C@@H](NC(=O)[C@H](CO)NC(=O)[C@H](Cc1ccc(O)cc1)NC(=O)[C@H](CC(=O)O)NC(=O)[C@H](CO)NC(=O)[C@@H](NC(=O)[C@H](Cc1ccccc1)NC(=O)[C@@H](NC(=O)CNC(=O)[C@H](CCC(=O)O)NC(=O)CSCC(=O)NCCN1C(=O)CSC1=O)[C@@H](C)O)[C@@H](C)O)[C@@H](C)CC)C(C)C)C(N)=O)C(=O)O [CT-859]
In vivo
  Cmax: 324 nM
  half-life: 523 min
1 mg/kg SC mouse
  AUClast: 3.579 µM·h
  Tmax: 4.0 h
Lean C57BL/6J mice
  in vivo potency vs liraglutide (in words): more potent than liraglutide in vivo
Lean C57BL/6J mice; lean C57BL/6J and DIO mice, single 20 nmol/kg
  duration of glucose lowering (in words): remained efficacious up to 48 hours post-administration
Lean C57BL/6J mice; lean C57BL/6J mice, 4 h after SC dose
  ED50 for improving post-prandial glucose in ipGTT: 0.46 nmol/kg
Lean C57BL/6J mice; lean mice, 20 nmol/kg, 4 h after administration
  acute effect on GLUC AUC (in words): acute reduction of glucose (GLUC) AUC
Lean C57BL/6J mice; lean mice, 20 nmol/kg, 48 hours
  reduction in GLUC AUC vs. vehicle: 45%
[1]; GLP-1R knockout mice, 20 nmol/kg
  GLUC AUC during IPGTT (in words): no effect on GLUC AUC
[1]; GLP-1R+/+ mice, 200 nmol/kg
  glucose levels lowered: 75%
[1]; GLP-1R+/+ mice, 20 and 200 nmol/kg
  glucose lowering (in words): lowered the post-prandial glucose levels equally and significantly compared to vehicle
[1]; GLP-1R-/- mice, 20 nmol/kg
  glucose lowering (in words): ineffective at lowering glucose levels
[1]; GLP-1R-/- mice, 200 nmol/kg
  glucose levels lowered compared to vehicle: 46%

## CCCCCCCCCCCCCCCC(=O)N[C@@H](CCC(=O)NCCCC[C@H](NC(=O)[C@H](CO)NC(=O)[C@@H]1CCCN1C(=O)[C@@H]1CCCN1C(=O)[C@@H]1CCCN1C(=O)[C@H](C)NC(=O)CNC(=O)[C@H](CO)NC(=O)[C@H](CO)NC(=O)[C@@H]1CCCN1C(=O)CNC(=O)CNC(=O)[C@H](C)NC(=O)[C@H](CC(C)C)NC(=O)[C@H](CC(C)C)NC(=O)[C@H](Cc1c[nH]c2ccccc12)NC(=O)[C@H](CC(N)=O)NC(=O)[C@@H](NC(=O)[C@H](Cc1ccccc1)NC(=O)[C@H](CCC(=O)O)NC(=O)C(C)(C)NC(=O)[C@H](C)NC(=O)[C@H](C)NC(=O)[C@H](CCC(N)=O)NC(=O)[C@H](CCCCN)NC(=O)[C@H](CC(=O)O)NC(=O)[C@H](CC(C)C)NC(=O)[C@H](Cc1ccc(O)cc1)NC(=O)[C@@H](NC(=O)[C@H](CO)NC(=O)[C@H](Cc1ccc(O)cc1)NC(=O)[C@H](CC(=O)O)NC(=O)[C@H](CO)NC(=O)[C@@H](NC(=O)[C@H](Cc1ccccc1)NC(=O)[C@@H](NC(=O)CNC(=O)[C@H](CCC(=O)O)NC(=O)CSCC(=O)NCCN1CCCCC1=O)[C@@H](C)O)[C@@H](C)O)[C@@H](C)CC)C(C)C)C(N)=O)C(=O)O [CT-868]
clinical; human
  incremental AUC: 128,267 ng/ml*min
  terminal half-life (t1/2): 1,190 minutes
clinical; human, AUC
  AUC: 3490 ng·h/mL
clinical; human, AUC (0-tau)
  AUC: 3860 ng·h/mL
clinical; human, Cmax
  Cmax: 247 ng/mL
clinical; human, Maximum Concentration of CT-868 (Cmax)
  Cmax: 274 ng/mL
clinical; human, Time of Maximum Concentration of CT-868 (Tmax)
  Tmax: 10.9 h
clinical; human, Tmax
  Tmax: 12.2 h
clinical; human, incremental AUC
  AUC: 2260 ng·h/mL
clinical; human, terminal half-life
  half-life: ~1200 min
clinical; human, terminal half-life (t1/2)
  half-life: 1190 min
clinical
  time at which maximum plasma concentrations were attained post-dose: 11 to 12 h
[2]; [4]
  Infections and infestations: 0 n (%)
  Urinary tract infection: 0 n (%)
[2]; [5]
  Infections and infestations: 0 n (%)
  Urinary tract infection: 0 n (%)
[2]; in vivo
  AEs of Special Interest (AESI) Total: 10 (50.0) n (%)
  Any AESIs, Grade 2: 1 (8.3%) n (%)
  Arthralgia: 0 n (%)
  At Least 1 Study Drug Related TEAE: 9 (45.0) n (%)
  At Least 1 TEAE: 14 (70.0) n (%)
  Back pain: 0 n (%)
  Coagulation test abnormal: 0 n (%)
  Dermatitis: 0 n (%)
  GI side effects (in words): mostly mild and transient
  Hypoglycemia: 7 (35.0) n (%)
  Injection Site Reaction: 1 (5.0) n (%)
  Investigations: 0 n (%)
  Musculoskeletal and connective tissue disorders: 0 n (%)
  SAEs: 0 n (%)
  Treatment Discontinuation: 1 (5.0)* n (%)
  participants with Grade 1 hypoglycemia events: 7 participants
  tolerability (in words): well tolerated
  vital signs, ECG parameters, laboratory values (in words): no clinically significant CT-868-related changes
[3]
  highest tested dose exceeds pharmacologically active dose by: 100 fold
  vomiting (in words): no instances of vomiting
Toxicology studies
  tolerability in toxicology studies (in words): well-tolerated at the highest dose tested
Human GIPR; CHO-K1, read-out: hGIPR cAMP (-alb) % Emax
  Emax: 41%
Human GIPR; potency activating cAMP at human GIPR, value of b126
  EC50: ~3.3 nM
Human GLP-1R; CHO-K1, read-out: hGLP-1R cAMP (-alb) % Emax
  Emax: 92%
Human GLP-1R; potency activating cAMP at human GLP-1R, value of b126
  EC50: ~0.17 nM
